Results: US20250145676A1, “FUNCTIONAL EXPRESSION OF ECTOPIC TMC1 AND TMC2 IN HETEROLOGOUS CELLS” (The Hong Kong University of Science and Technology, priority 2023, published 2025)

Biological target: T1, Fyn-mTMC2-mCherry+mTMIE channel (Mus musculus, UniProt Q8R4P4)
T1 construct: expressed in transfected cells; host or cells: PK-HEK293T (PIEZO1-knockout HEK293T)
T1 sequence (Q8R4P4 1-888): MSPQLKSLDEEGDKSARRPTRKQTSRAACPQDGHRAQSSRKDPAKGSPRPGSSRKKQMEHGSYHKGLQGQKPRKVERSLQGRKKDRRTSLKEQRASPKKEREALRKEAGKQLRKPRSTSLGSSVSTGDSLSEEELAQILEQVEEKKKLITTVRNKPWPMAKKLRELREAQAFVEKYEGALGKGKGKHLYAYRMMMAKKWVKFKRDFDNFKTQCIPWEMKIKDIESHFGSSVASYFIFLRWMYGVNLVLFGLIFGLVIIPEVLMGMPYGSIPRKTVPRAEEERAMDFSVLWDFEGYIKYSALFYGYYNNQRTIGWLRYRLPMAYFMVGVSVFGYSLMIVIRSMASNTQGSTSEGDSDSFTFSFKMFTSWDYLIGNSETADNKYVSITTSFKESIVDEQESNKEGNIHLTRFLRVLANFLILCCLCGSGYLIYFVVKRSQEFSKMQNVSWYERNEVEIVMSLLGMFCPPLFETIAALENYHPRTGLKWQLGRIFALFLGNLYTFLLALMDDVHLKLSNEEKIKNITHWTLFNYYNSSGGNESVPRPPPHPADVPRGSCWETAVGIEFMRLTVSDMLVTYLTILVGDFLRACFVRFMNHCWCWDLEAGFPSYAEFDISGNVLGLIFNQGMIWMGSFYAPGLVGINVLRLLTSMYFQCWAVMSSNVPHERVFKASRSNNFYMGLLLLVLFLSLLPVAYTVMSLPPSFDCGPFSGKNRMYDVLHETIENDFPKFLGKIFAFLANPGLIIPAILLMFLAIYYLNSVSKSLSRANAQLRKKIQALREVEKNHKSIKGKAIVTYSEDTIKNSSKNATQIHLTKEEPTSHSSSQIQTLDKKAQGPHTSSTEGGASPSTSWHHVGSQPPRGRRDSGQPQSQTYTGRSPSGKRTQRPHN
T1 sequence (Q8K467 29-153 partner): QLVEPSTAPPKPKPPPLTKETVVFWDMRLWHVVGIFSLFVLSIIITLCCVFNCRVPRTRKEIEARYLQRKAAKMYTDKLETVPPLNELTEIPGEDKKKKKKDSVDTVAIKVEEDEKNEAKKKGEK
Experiment: Whole-cell poking patch-clamp assay, DHS sensitivity of MS currents
Assay type: cell-based
Conditions: 2 mM DHS in the bath; PK-HEK293T cells co-expressing Fyn-mTMC2-mCherry and mTMIE; 4 experiments, p=0.0044
Experimental: Briefly, PK-HEK293T cells were incubated for 24 h after transfection before performing the whole-cell patch-clamp assay at room temperature. For co-transfection of two plasmids, the w/w ratio of TMC1/2 plasmids and TMIE plasmid was 3:1. The bath solution contained (in mM) 137 NaCl, 5.8 KCl, 0.7 NaH2PO4, 10 HEPES, 1.3 CaCl2, 0.9 MgCl2, 5.6 glucose (pH 7.3 with NaOH); the pipette solution contained (in mM) 137 CsCl, 0.1 EGTA, 10 HEPES, 3.5 MgCl2 (pH 7.3 with CsOH). The recording glass pipettes (1B150-4 Borosilicate Glass Capillaries, World Precision Instruments) were pulled and polished using a pipette puller (DMZ, Zeitz Instruments) and featured a resistance of 3-5 MQ. The mechanical stimulus was applied by poking cells with a fire-polished glass probe with a tip diameter of 2-3 μm. […] The reversal potentials were calculated using Vpipette at zero current with correction for the junction potential of the pipette and bath solutions (+1.2 mV for whole cell recording). Data were analyzed with Clampfit 10.7 (Molecular Devices). For the measurement of the inactivation time constant, all current responses, except for traces with a noticeable shift in baseline, were individually calculated and averaged.

DHS-sensitivity of whole-cell MS currents: DHS-sensitive
Structure (SMILES): CN[C@@H]1[C@H](O[C@H]2[C@H](O[C@H]3[C@H](O)[C@@H](O)[C@H](NC(=N)N)[C@@H](O)[C@@H]3NC(=N)N)O[C@@H](C)[C@]2(O)CO)O[C@@H](CO)[C@H](O)[C@H]1O [DHS, dihydrostreptomycin]
